Reference: BindingDB's records for doi:10.1016/s0960-894x(99)00093-1 (Sankyo, 1999)

Molecular target: T1, Substance-K receptor (Cavia porcellus, UniProt Q64077)
T1 sequence (Q64077 whole entry): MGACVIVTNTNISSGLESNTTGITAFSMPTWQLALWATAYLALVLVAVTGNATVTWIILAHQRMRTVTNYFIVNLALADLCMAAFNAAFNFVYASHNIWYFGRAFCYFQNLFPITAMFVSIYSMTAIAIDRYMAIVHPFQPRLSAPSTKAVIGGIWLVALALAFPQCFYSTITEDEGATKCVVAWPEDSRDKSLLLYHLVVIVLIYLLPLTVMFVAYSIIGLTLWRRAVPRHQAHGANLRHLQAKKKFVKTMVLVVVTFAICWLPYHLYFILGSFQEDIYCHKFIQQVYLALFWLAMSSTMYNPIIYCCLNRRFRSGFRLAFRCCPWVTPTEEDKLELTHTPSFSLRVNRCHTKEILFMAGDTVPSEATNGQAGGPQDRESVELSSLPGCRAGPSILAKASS
Assay: ChEBML_142706
From the text: (§1) Inhibitory activity against Neurokinin 2 (NK2) receptor from guinea pig ileum

Structure (SMILES) | IC50
COc1cc(C(=O)N2CO[C@](CCN3CCC4(CC3)c3ccccc3C[S+]4[O-])(c3ccc(Cl)c(Cl)c3)C2)cc(OC)c1OC (some centres undefined) | 7.5 nM
COc1cc(C(=O)N2CO[C@](CCN3CCC4(CC3)C(=O)N(C)c3ccccc34)(c3ccc(Cl)c(Cl)c3)C2)cc(OC)c1OC | 34 nM
COc1cc(C(=O)N2CO[C@](CCN3CCC(C(N)=O)(c4ccccc4)CC3)(c3ccc(Cl)c(Cl)c3)C2)cc(OC)c1OC | 91 nM

Molecular target: T2, Substance-P receptor (Cavia porcellus, UniProt P30547)
Assay: ChEBML_144914
From the text: (§2) Inhibitory activity against Neurokinin 1 (NK1) receptor from guinea pig lung

T2 sequence (P30547 whole entry): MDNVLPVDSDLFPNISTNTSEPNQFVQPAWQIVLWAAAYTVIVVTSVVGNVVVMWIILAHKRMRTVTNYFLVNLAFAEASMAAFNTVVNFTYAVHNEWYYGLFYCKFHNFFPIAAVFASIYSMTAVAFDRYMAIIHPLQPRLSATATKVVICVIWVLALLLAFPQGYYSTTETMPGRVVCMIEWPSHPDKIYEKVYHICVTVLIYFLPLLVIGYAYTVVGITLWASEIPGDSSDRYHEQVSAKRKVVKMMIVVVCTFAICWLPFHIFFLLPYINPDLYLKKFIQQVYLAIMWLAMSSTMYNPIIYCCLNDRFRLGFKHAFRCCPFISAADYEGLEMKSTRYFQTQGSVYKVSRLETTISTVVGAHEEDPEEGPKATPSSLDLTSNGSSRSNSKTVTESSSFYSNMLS

IC50 | Structure (SMILES)
16 nM | COc1cc(C(=O)N2CO[C@](CCN3CCC4(CC3)c3ccccc3C[S+]4[O-])(c3ccc(F)c(F)c3)C2)cc(OC)c1OC (some centres undefined)
28 nM | COc1cc(C(=O)N2CO[C@](CCN3CCC4(CC3)NC(=O)Cc3ccccc34)(c3ccc(F)c(F)c3)C2)cc(OC)c1OC
27 nM | COc1cc(C(=O)N2CO[C@](CCN3CCC(C(=O)N(C)C)(c4ccccc4)CC3)(c3ccc(F)c(F)c3)C2)cc(OC)c1OC

Molecular target: T1, Substance-K receptor
Assay: as §1

IC50 | Structure (SMILES)
7.3 nM | COc1cc(C(=O)N2CO[C@](CCN3CCC4(CC3)C[S+]([O-])c3ccccc34)(c3ccc(Cl)c(Cl)c3)C2)cc(OC)c1OC (some centres undefined)
74 nM | COc1cc(C(=O)N2CO[C@](CCN3CCN(c4ccc(C(C)=O)cc4)CC3)(c3ccc(Cl)c(Cl)c3)C2)cc(OC)c1OC
52 nM | COc1cc(C(=O)N2CO[C@](CCN3CCC(C(=O)N4CCOCC4)(c4ccccc4)CC3)(c3ccc(Cl)c(Cl)c3)C2)cc(OC)c1OC

Structure (SMILES) | IC50
COc1cc(C(=O)N2CO[C@](CCN3CCC(C(=O)N(C)C)(c4ccccc4)CC3)(c3ccc(Cl)cc3)C2)cc(OC)c1OC | 4.7 nM

Molecular target: T2, Substance-P receptor
Assay: as §2

Structure (SMILES) | IC50
COc1cc(C(=O)N2CO[C@](CCN3CCC(C(N)=O)(c4ccccc4)CC3)(c3ccc(Cl)cc3)C2)cc(OC)c1OC | 27 nM
COc1cc(C(=O)N2CO[C@](CCN3CCN(c4ccc(C(C)=O)cc4)CC3)(c3ccc(Cl)c(Cl)c3)C2)cc(OC)c1OC | 18 nM
COc1cc(C(=O)N2CO[C@](CCN3CCC(C(N)=O)(c4ccccc4)CC3)(c3ccc(F)c(F)c3)C2)cc(OC)c1OC | 10 nM
COc1cc(C(=O)N2CO[C@](CCN3CCC(C(N)=O)(c4ccccc4)CC3)(c3ccc(F)cc3)C2)cc(OC)c1OC | 27 nM
